In brackets after ≈: the same amount, converted by molar mass. Like-named read-outs stand apart in the source and are kept apart here. Each block holds one compound with its values, some of them ahead of it.
Experiments:
Assay type in all cases: cell-based
[1] = LDH cytotoxic activity assay, C6; details: rat, C6 glioma cells; for cytotoxicity at 24 h, 25 μg/mL: C6, 25 μg/mL; for cytotoxicity at 24 h, 50 μg/mL: C6, 50 μg/mL; for cytotoxicity at 24 h, 75 μg/mL: C6, 75 μg/mL; for cytotoxicity at 24 h, 100 μg/mL: C6, 100 μg/mL
Outline: (§1)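 Cells grown in DMEM or RPMI 1640 with 10% FBS were seeded at about 5 × 10^3 per well in triplicate. They were exposed to 25, 50, 75 and 100 μg/mL compound for 24 h at 37 °C, 5% CO2, and LDH release was measured by absorbance at 492–630 nm.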

[2] = LDH cytotoxic activity assay, HT29; details: human, HT29 cells; for cytotoxicity at 24 h, 25 μg/mL: HT29, 25 μg/mL; for cytotoxicity at 24 h, 50 μg/mL: HT29, 50 μg/mL; for cytotoxicity at 24 h, 75 μg/mL: HT29, 75 μg/mL; for cytotoxicity at 24 h, 100 μg/mL: HT29, 100 μg/mL
Outline: as §1

[3] = LDH cytotoxic activity assay, HeLa; details: human, HeLa cells
Outline: as §1

normal FL cells = assay: cells; details: FL normal cells, MTT; for IC50: read-out: IC50; for IC (total growth inhibition): read-out: TGI
Outline: (§2)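 Seed ~1 × 10^4 cells/well; final 200 μL. Add MTT in phenol-red-free RPMI 1640, 4 h. Solubilise formazan in DMSO + Sorenson's buffer, 30 min RT. Read 560/690 nm. ≥3 repeats.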

in vitro = details: human, LC50
Outline: as §2

A549 = assay: cells; details: Homo sapiens; for LC50 (concentration causing 50% net cell loss): A549, read-out: LC50; for GI50 / IC50 / IC (total growth inhibition): A549, MTT; for IC50: read-out: IC50; for IC (total growth inhibition): read-out: TGI
Outline: as §2

HT29 = assay: cells; details: Homo sapiens; for LC50 (concentration giving 50% net cell loss relative to time zero): HT-29, read-out: LC50; for GI50 / IC50 / IC (total growth inhibition): HT-29, HT29, MTT; for IC50: read-out: IC50; for IC (total growth inhibition): read-out: TGI
Outline: as §2

Hep3B = assay: cells; details: Homo sapiens; for GI50 / IC50 / IC (total growth inhibition): MTT; for IC50: read-out: IC50; for IC (total growth inhibition): read-out: TGI; for LC50 (concentration causing 50% net cell loss relative to time zero): read-out: LC50
Outline: as §2

HeLa = assay: cells; details: Homo sapiens; for GI50 / IC50 / IC (total growth inhibition): MTT; for IC50: read-out: IC50; for IC (total growth inhibition): read-out: TGI; for LC50 (concentration causing 50% net cell loss): read-out: LC50
Outline: as §2

C6 (Rat brain glioma) = assay: cells; details: Rattus norvegicus; for LC50 (concentration giving 50% net cell loss relative to time zero): read-out: LC50; for GI50 / IC50 / IC (total growth inhibition): C6, MTT; for IC50: read-out: IC50; for IC (total growth inhibition): read-out: TGI
Outline: as §2

MCF7 = assay: cells; details: Homo sapiens; for LC50 (concentration causing 50% net cell loss relative to time zero): MCF7, read-out: LC50; for GI50 / IC50 / IC (total growth inhibition): MCF7, MTT; for IC50: read-out: IC50; for IC (total growth inhibition): read-out: TGI
Outline: as §2

[4] = system: S. aureus MSSA ATCC 29213; assay: Microdilution MIC assay; details: S. aureus MSSA ATCC 29213, 24 h at 35 °C
Outline: (§3)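 Read-out is visual: absence of turbidity after 24 h at 35 °C defines the MIC, the lowest such concentration in a microwell dilution series.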

E. coli ATCC 25922 = assay: Microdilution MIC assay; details: Escherichia coli, ATCC25922; E. coli ATCC 25922, 24 h at 35 °C
Outline: as §3

S. mutans ATCC 35668 = assay: Microdilution MIC assay; details: S. mutans ATCC 35668, 24 h at 35 °C
Outline: as §3

[5] = system: P. aeruginosa AGME ATCC 27853; assay: Microdilution MIC assay; details: Pseudomonas aeruginosa, ATCC27853; P. aeruginosa AGME ATCC 27853, 24 h at 35 °C
Outline: as §3

E. coli ESBL ATCC 35218 = assay: Microdilution MIC assay; details: Escherichia coli, ATCC35218; E. coli ESBL ATCC 35218, 24 h at 35 °C
Outline: as §3

[6] = system: S. aureus MRSA ATCC 46300; assay: Microdilution MIC assay; details: Staphylococcus aureus; S. aureus MRSA ATCC 46300, 24 h at 35 °C; read-out: MIC
Outline: as §3

[7] = Staphylococcus aureus, 24 h, read-out: MIC
[8] = Streptococcus mutans, ATCC35668, 24 h, read-out: MIC

- GI50 (A549): 7.85 µg/mL (≈ 13.2 µM)
- IC50 (A549): > 500 µg/mL
- GI50 (HT29): 3.09 µg/mL (≈ 5.21 µM)
- IC50 (HT29): > 500 µg/mL
- GI50 (Hep3B): 3.86 µg/mL (≈ 6.51 µM)
- IC50 (Hep3B): > 500 µg/mL
- GI50 (HeLa): > 500 µg/mL
- IC50 (HeLa): > 500 µg/mL
- GI50 (C6 (Rat brain glioma)): > 500 µg/mL
- IC50 (C6 (Rat brain glioma)): > 500 µg/mL
- GI50 (MCF7): 2.19 µg/mL (≈ 3.7 µM)
- IC50 (MCF7): > 500 µg/mL
- MIC [4]: 125 µg/mL (≈ 211 µM)
- MIC [4, 7]: 62.5 to 125 µg/mL (≈ 105 to 211 µM)
- MIC (E. coli ATCC 25922): > 1000 µg/mL
- MIC (S. mutans ATCC 35668): 125 µg/mL (≈ 211 µM)
- MIC (S. mutans ATCC 35668; [8]): 62.5 to 125 µg/mL (≈ 105 to 211 µM)
- MIC [5]: > 1000 µg/mL
- MIC (E. coli ESBL ATCC 35218): > 1000 µg/mL
- MIC [6]: 1000 µg/mL (≈ 1690 µM)
SMILES: CC(=O)OC[C@H]1O[C@@H](Nc2nc(-c3ccc(C)cc3)cc(-c3cccnc3)n2)[C@H](OC(C)=O)[C@@H](OC(C)=O)[C@@H]1OC(C)=O [Compound 17, 2,3,4,6-tetra-O-acetyl-N-[4-(4-methylphenyl)-6-pyridin-3-ylpyrimidin-2-yl]-β-D-glucopyranosylamine]
- cytotoxicity at 24 h, 25 μg/mL [1]: 32%
- cytotoxicity at 24 h, 50 μg/mL [1]: 44.6%
- cytotoxicity at 24 h, 75 μg/mL [1]: 67.6%
- cytotoxicity at 24 h, 100 μg/mL [1]: 81.8%
- cytotoxicity at 24 h, 25 μg/mL [2]: 21.7%
- cytotoxicity at 24 h, 50 μg/mL [2]: 35.8%
- cytotoxicity at 24 h, 75 μg/mL [2]: 51%
- cytotoxicity at 24 h, 100 μg/mL [2]: 75.7%
- cytotoxicity at 24 h, 25 μg/mL [3]: 16.7%
- cytotoxicity at 24 h, 50 μg/mL [3]: 23.8%
- cytotoxicity at 24 h, 75 μg/mL [3]: 32.4%
- cytotoxicity at 24 h, 100 μg/mL [3]: 48.6%
- GI50 (normal FL cells): 17.2 µg/mL (≈ 29 µM)
- IC50 (normal FL cells): > 500 µg/mL
- IC (total growth inhibition) (normal FL cells): > 500 µg/mL
- LC50 (concentration causing 50% net cell loss) (in vitro): > 500 µg/mL
- LC50 (concentration causing 50% net cell loss) (A549): > 500 µg/mL
- IC (total growth inhibition) (A549): > 500 µg/mL
- LC50 (concentration giving 50% net cell loss relative to time zero) (HT29): > 500 µg/mL
- IC (total growth inhibition) (HT29): > 500 µg/mL
- IC (total growth inhibition) (Hep3B): > 500 µg/mL
- LC50 (concentration causing 50% net cell loss relative to time zero) (Hep3B): > 500 µg/mL
- IC (total growth inhibition) (HeLa): > 500 µg/mL
- LC50 (concentration causing 50% net cell loss) (HeLa): > 500 µg/mL
- LC50 (concentration giving 50% net cell loss relative to time zero) (C6 (Rat brain glioma)): > 500 µg/mL
- IC (total growth inhibition) (C6 (Rat brain glioma)): > 500 µg/mL
- LC50 (concentration causing 50% net cell loss relative to time zero) (MCF7): > 500 µg/mL
- IC (total growth inhibition) (MCF7): > 500 µg/mL

- GI50 (A549): 67.8 µg/mL (≈ 160 µM)
- IC50 (A549): > 500 µg/mL
- GI50 (HT29): 3.41 µg/mL (≈ 8.03 µM)
- IC50 (HT29): 198 µg/mL (≈ 466 µM)
- GI50 (Hep3B): 5.38 µg/mL (≈ 12.7 µM)
- IC50 (Hep3B): > 500 µg/mL
- GI50 (HeLa): 10.5 µg/mL (≈ 24.8 µM)
- IC50 (HeLa): 54.4 µg/mL (≈ 128 µM)
- GI50 (C6 (Rat brain glioma)): 6.34 µg/mL (≈ 14.9 µM)
- IC50 (C6 (Rat brain glioma)): 41.2 µg/mL (≈ 97.1 µM)
- GI50 (MCF7): 1.81 µg/mL (≈ 4.26 µM)
- IC50 (MCF7): > 500 µg/mL
- MIC [4, 7]: 500 µg/mL (≈ 1180 µM)
- MIC (E. coli ATCC 25922): > 1000 µg/mL
- MIC (S. mutans ATCC 35668): 62.5 µg/mL (≈ 147 µM)
- MIC (S. mutans ATCC 35668; [8]): 62.5 to 125 µg/mL (≈ 147 to 294 µM)
- MIC [5]: > 1000 µg/mL
- MIC (E. coli ESBL ATCC 35218): > 1000 µg/mL
- MIC [6]: 1000 µg/mL (≈ 2360 µM)
SMILES: Cc1ccccc1-c1cc(-c2ccccn2)nc(N[C@@H]2O[C@H](CO)[C@@H](O)[C@H](O)[C@H]2O)n1 [Compound 1, N-[4-(2-methylphenyl)-6-pyridin-2-ylpyrimidin-2-yl]-β-D-glucopyranosylamine]
- cytotoxicity at 24 h, 25 μg/mL [1]: 28.7%
- cytotoxicity at 24 h, 50 μg/mL [1]: 28.7%
- cytotoxicity at 24 h, 75 μg/mL [1]: 72.1%
- cytotoxicity at 24 h, 100 μg/mL [1]: 97.8%
- cytotoxicity at 24 h, 25 μg/mL [2]: 29.3%
- cytotoxicity at 24 h, 50 μg/mL [2]: 48%
- cytotoxicity at 24 h, 75 μg/mL [2]: 68.9%
- cytotoxicity at 24 h, 100 μg/mL [2]: 83.7%
- cytotoxicity at 24 h, 25 μg/mL [3]: 30.2%
- cytotoxicity at 24 h, 50 μg/mL [3]: 47%
- cytotoxicity at 24 h, 75 μg/mL [3]: 65.3%
- cytotoxicity at 24 h, 100 μg/mL [3]: 88.7%
- GI50 (normal FL cells): 3.1 µg/mL (≈ 7.3 µM)
- IC50 (normal FL cells): 77.4 µg/mL (≈ 182 µM)
- IC (total growth inhibition) (normal FL cells): 81.6 µg/mL
- LC50 (concentration causing 50% net cell loss) (in vitro): > 500 µg/mL
- LC50 (concentration causing 50% net cell loss) (A549): > 500 µg/mL
- IC (total growth inhibition) (A549): > 500 µg/mL
- LC50 (concentration giving 50% net cell loss relative to time zero) (HT29): > 500 µg/mL
- IC (total growth inhibition) (HT29): > 500 µg/mL
- IC (total growth inhibition) (Hep3B): > 500 µg/mL
- LC50 (concentration causing 50% net cell loss relative to time zero) (Hep3B): > 500 µg/mL
- IC (total growth inhibition) (HeLa): 35.1 µg/mL
- LC50 (concentration causing 50% net cell loss) (HeLa): 218 µg/mL (≈ 514 µM)
- LC50 (concentration giving 50% net cell loss relative to time zero) (C6 (Rat brain glioma)): 245 µg/mL (≈ 578 µM)
- IC (total growth inhibition) (C6 (Rat brain glioma)): 24.3 µg/mL
- LC50 (concentration causing 50% net cell loss relative to time zero) (MCF7): > 500 µg/mL
- IC (total growth inhibition) (MCF7): > 500 µg/mL

Source: PMC10387993, “New pyrimidine-N-β-D-glucosides: synthesis, biological evaluation, and molecular docking investigations” (Turkish Journal of Chemistry, 2023)
